pIC50: −log10 of the molar value. Values belong to the molecule of their own block, whether it stands above or below them.
Columns and labels:
MAPK14 (C3H mice) = assay: Inhibition of LPS Stimulated TNF Production in C3H Mice; conditions: dose or concentration not given here
MAPK14 = MAPK14 (UniProt Q16539); assay: Inhibition of p38 Kinase Activity
MAPK14 (human) [1] = target: MAPK14 (human) (UniProt Q16539); assay: Inhibition of TNF Release from Human Peripheral Blood Mononuclear Cells; conditions: pbmc
MAPK14 (human) [2] = target: MAPK14 (human) (UniProt Q16539); assay: Inhibition of HFF Cell Proliferation

MAPK14, sequence (Q16539 whole entry, looked up): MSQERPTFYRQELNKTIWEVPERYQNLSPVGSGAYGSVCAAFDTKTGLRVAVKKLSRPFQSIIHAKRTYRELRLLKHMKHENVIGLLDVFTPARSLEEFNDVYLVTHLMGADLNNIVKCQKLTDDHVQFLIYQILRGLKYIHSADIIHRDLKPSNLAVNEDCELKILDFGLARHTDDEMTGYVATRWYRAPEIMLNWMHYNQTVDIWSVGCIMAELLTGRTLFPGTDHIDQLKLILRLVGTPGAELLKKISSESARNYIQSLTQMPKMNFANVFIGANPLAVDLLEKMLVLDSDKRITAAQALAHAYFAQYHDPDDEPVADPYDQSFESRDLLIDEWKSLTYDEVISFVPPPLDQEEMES
MAPK14 (human), sequence (Q16539 whole entry, looked up): as above

Structure (SMILES): CSc1nccc(-c2c(-c3ccc(F)cc3)nn3ccccc23)n1
inhibition (MAPK14 (C3H mice)): 56%
pIC50 (MAPK14): > 6.30

Structure (SMILES): NC(=O)c1ccc2c(-c3ccnc(NCCCN4CCCCC4)n3)c(-c3ccc(F)cc3)nn2c1
pIC50 (MAPK14): > 6.30

Structure (SMILES): Fc1ccc(-c2nn3cc(C(F)(F)F)ccc3c2-c2ccncc2)cc1
pIC50 (MAPK14): > 6.30

Structure (SMILES): CCCN1CCN(CCNc2nccc(-c3c(-c4cccc(Cl)c4)nn4cc(C(F)(F)F)ccc34)n2)CC1
pIC50 (MAPK14): 7.00 to 8.00

Structure (SMILES): FC(F)(F)c1ccc(-c2nn3cc(C(F)(F)F)ccc3c2-c2ccnc(NCCCN3CCOCC3)n2)cc1
pIC50 (MAPK14): 5.00 to 6.00

Structure (SMILES): Fc1ccc(-c2nn3cc(C(F)(F)F)ccc3c2-c2ccnc(NCCN3CCCCC3)n2)cc1Cl
pIC50 (MAPK14): 6.00 to 7.00

Structure (SMILES): Fc1ccc(-c2nn3cc(C(F)(F)F)ccc3c2-c2ccnc(NCCCN3CCOCC3)n2)cc1Cl
pIC50 (MAPK14): 6.00 to 7.00

Structure (SMILES): Cc1ccc(C)c(Oc2nccc(-c3c(-c4ccc(F)cc4)nn4cc(C(F)(F)F)ccc34)n2)c1
pIC50 (MAPK14): > 6.30

Structure (SMILES): Fc1ccc(-c2nn3ccccc3c2-c2ccncc2)cc1
pIC50 (MAPK14 (human) [2]): < 4.30
inhibition (MAPK14 (C3H mice)): 65%
pIC50 (MAPK14): > 6.30

Structure (SMILES): Nc1ncccc1C(=O)OCc1ccn2nc(-c3ccc(F)cc3)c(-c3ccncc3)c2c1
pIC50 (MAPK14 (human) [2]): < 4.30
pIC50 (MAPK14): > 6.30

Structure (SMILES): CCCN1CCN(CCNc2nccc(-c3c(-c4ccc(F)c(Cl)c4)nn4cc(C(F)(F)F)ccc34)n2)CC1
pIC50 (MAPK14): 7.00 to 8.00

Structure (SMILES): FC(F)(F)c1ccc2c(-c3ccnc(NCCN4CCCCC4)n3)c(-c3cccc(Cl)c3)nn2c1
pIC50 (MAPK14): 6.00 to 7.00

Structure (SMILES): CCCN(CCC)CCNc1nccc(-c2c(-c3ccc(C(F)(F)F)cc3)nn3cc(C(F)(F)F)ccc23)n1
pIC50 (MAPK14): 5.00 to 6.00

Structure (SMILES): N#Cc1ccc2c(-c3ccnc(NC4CC4)n3)c(-c3ccc(F)cc3)nn2c1
inhibition (MAPK14 (C3H mice)): 52%
pIC50 (MAPK14): > 6.30

Structure (SMILES): CC(C)N(CCNc1nccc(-c2c(-c3ccc(F)c(Cl)c3)nn3cc(C(F)(F)F)ccc23)n1)C(C)C
pIC50 (MAPK14): 6.00 to 7.00

Structure (SMILES): CCN(CC)CCCCNc1nccc(-c2c(-c3cccc(Cl)c3)nn3cc(C(F)(F)F)ccc23)n1
pIC50 (MAPK14): 7.00 to 8.00

Structure (SMILES): NC(=O)c1ccc2c(-c3ccnc(NCCCO)n3)c(-c3ccc(F)cc3)nn2c1
pIC50 (MAPK14): > 6.30

Structure (SMILES): CN(C)CCCNc1nccc(-c2c(-c3ccc(C(F)(F)F)cc3)nn3cc(C(F)(F)F)ccc23)n1
pIC50 (MAPK14): 5.00 to 6.00

Structure (SMILES): Fc1ccc(-c2nn3ccccc3c2-c2ccncn2)cc1
pIC50 (MAPK14 (human) [2]): < 4.30
inhibition (MAPK14 (C3H mice)): 67%
pIC50 (MAPK14): 5.30 to 6.30

Structure (SMILES): CCCN(CCC)CCNc1nccc(-c2c(-c3ccc(F)c(Cl)c3)nn3cc(C(F)(F)F)ccc23)n1
pIC50 (MAPK14): 6.00 to 7.00

Structure (SMILES): FC(F)(F)c1ccc2c(-c3ccnc(NCCN4CCCCCC4)n3)c(-c3cccc(Cl)c3)nn2c1
pIC50 (MAPK14): 6.00 to 7.00

Structure (SMILES): FC(F)(F)c1ccc(-c2nn3cc(C(F)(F)F)ccc3c2-c2ccnc(NCCN3CCOCC3)n2)cc1
pIC50 (MAPK14): 5.00 to 6.00

Structure (SMILES): FC(F)(F)c1ccc(-c2nn3cc(C(F)(F)F)ccc3c2-c2ccnc(NCCCN3CCCCC3)n2)cc1
pIC50 (MAPK14): 5.00 to 6.00

Structure (SMILES): OCCCNc1cc(-c2c(-c3ccc(F)cc3)nn3ccccc23)ccn1
pIC50 (MAPK14 (human) [2]): < 4.30
inhibition (MAPK14 (C3H mice)): 45%
pIC50 (MAPK14): > 6.30

Structure (SMILES): CCN(CC)CCCCNc1nccc(-c2c(-c3ccc(F)c(Cl)c3)nn3cc(C(F)(F)F)ccc23)n1
pIC50 (MAPK14): 7.00 to 8.00

Structure (SMILES): Fc1ccc(-c2nn3cc(C(F)(F)F)ccc3c2-c2ccnc(Oc3ccccc3)n2)cc1
pIC50 (MAPK14): > 6.30

Structure (SMILES): CCN(CC)CCNc1nccc(-c2c(-c3ccc(C(F)(F)F)cc3)nn3cc(C(F)(F)F)ccc23)n1
pIC50 (MAPK14): 5.00 to 6.00

Structure (SMILES): Fc1ccc(-c2nn3ccccc3c2-c2ccnc(NC3CC3)n2)cc1
pIC50 (MAPK14): > 6.30

Structure (SMILES): Fc1ccc(-c2nn3ccccc3c2-c2ccnc(NCCc3cnc[nH]3)n2)cc1
pIC50 (MAPK14): > 6.30

More lines, main results first:

pIC50 (MAPK14): 6.00 to 7.00
Structure (SMILES): CCN(CC)CCNc1nccc(-c2c(-c3cccc(Cl)c3)nn3cc(C(F)(F)F)ccc23)n1

pIC50 (MAPK14 (human) [1]): > 6.30
pIC50 (MAPK14): > 6.30
Structure (SMILES): NC(=O)c1ccc2c(-c3ccnc(NC4CC4)n3)c(-c3ccc(F)cc3)nn2c1
inhibition (MAPK14 (C3H mice)): 90%

pIC50 (MAPK14): 6.00 to 7.00
Structure (SMILES): FC(F)(F)c1ccc2c(-c3ccnc(NCCN4CCCC4)n3)c(-c3cccc(Cl)c3)nn2c1

pIC50 (MAPK14): 6.00 to 7.00
Structure (SMILES): Fc1ccc(-c2nn3cc(C(F)(F)F)ccc3c2-c2ccnc(NCCCN3CCCCC3)n2)cc1Cl

pIC50 (MAPK14): 7.00 to 8.00
Structure (SMILES): FC(F)(F)c1ccc2c(-c3ccnc(NCCCCN4CCCC4)n3)c(-c3cccc(Cl)c3)nn2c1

pIC50 (MAPK14): 6.00 to 7.00
Structure (SMILES): Fc1ccc(-c2nn3cc(C(F)(F)F)ccc3c2-c2ccnc(NCCN3CCCC3)n2)cc1Cl

pIC50 (MAPK14 (human) [2]): 4.30 to 5.30
pIC50 (MAPK14): > 6.30
Structure (SMILES): Fc1ccc(-c2nn3ccccc3c2-c2ccnc(NCc3cccnc3)c2)cc1

pIC50 (MAPK14): > 6.30
Structure (SMILES): Nc1nccc(-c2c(-c3ccc(F)cc3)nn3ccccc23)n1
inhibition (MAPK14 (C3H mice)): 62%

pIC50 (MAPK14): 7.00 to 8.00
Structure (SMILES): CN1CCN(CCCNc2nccc(-c3c(-c4ccc(F)c(Cl)c4)nn4cc(C(F)(F)F)ccc34)n2)CC1

pIC50 (MAPK14): > 6.30
Structure (SMILES): Fc1ccc(-c2nn3ccccc3c2-c2ccnc(NCc3ccccn3)n2)cc1
inhibition (MAPK14 (C3H mice)): 87%

pIC50 (MAPK14): > 6.30
Structure (SMILES): OCCCNc1nccc(-c2c(-c3ccc(F)cc3)nn3cc(C(F)(F)F)ccc23)n1

pIC50 (MAPK14): 7.00 to 8.00
Structure (SMILES): CN(C)CCCNc1nccc(-c2c(-c3ccc(F)c(Cl)c3)nn3cc(C(F)(F)F)ccc23)n1

pIC50 (MAPK14): > 6.30
Structure (SMILES): CC(C)Nc1nccc(-c2c(-c3ccc(F)cc3)nn3cc(C(F)(F)F)ccc23)n1
inhibition (MAPK14 (C3H mice)): 45%

pIC50 (MAPK14): 7.00 to 8.00
Structure (SMILES): CN1CCN(CCCNc2nccc(-c3c(-c4ccc(F)cc4)nn4cc(C(F)(F)F)ccc34)n2)CC1

pIC50 (MAPK14): > 6.30
Structure (SMILES): CCCCNc1nccc(-c2c(-c3ccc(F)cc3)nn3ccccc23)n1
inhibition (MAPK14 (C3H mice)): 88%

pIC50 (MAPK14): 5.30 to 6.30
Structure (SMILES): COc1ccn2nc(-c3ccc(F)cc3)c(-c3ccncc3)c2c1
inhibition (MAPK14 (C3H mice)): 11%

pIC50 (MAPK14): 6.00 to 7.00
Structure (SMILES): CN(C)CCCNc1nccc(-c2c(-c3ccc(F)cc3)nn3cc(C(F)(F)F)ccc23)n1

pIC50 (MAPK14 (human) [1]): > 6.30
pIC50 (MAPK14): > 6.30
Structure (SMILES): Fc1ccc(-c2nn3ccccc3c2-c2ccnc(NCc3ccc(Cl)cc3)c2)cc1
inhibition (MAPK14 (C3H mice)): 42%

pIC50 (MAPK14): 5.00 to 6.00
Structure (SMILES): CCCN1CCN(CCNc2nccc(-c3c(-c4ccc(C(F)(F)F)cc4)nn4cc(C(F)(F)F)ccc34)n2)CC1

pIC50 (MAPK14): 5.00 to 6.00
Structure (SMILES): FC(F)(F)c1ccc(-c2nn3cc(C(F)(F)F)ccc3c2-c2ccnc(NCCN3CCCCC3)n2)cc1

pIC50 (MAPK14): 6.00 to 7.00
Structure (SMILES): CCCN(CCC)CCNc1nccc(-c2c(-c3cccc(Cl)c3)nn3cc(C(F)(F)F)ccc23)n1

pIC50 (MAPK14): 7.00 to 8.00
Structure (SMILES): CN(C)CCCNc1nccc(-c2c(-c3cccc(Cl)c3)nn3cc(C(F)(F)F)ccc23)n1

pIC50 (MAPK14): > 6.30
Structure (SMILES): OCc1ccn2nc(-c3ccc(F)cc3)c(-c3ccncc3)c2c1

pIC50 (MAPK14): > 6.30
Structure (SMILES): Fc1ccc(-c2nn3cc(C(F)(F)F)ccc3c2-c2ccnc(NC3CC3)n2)cc1
inhibition (MAPK14 (C3H mice)): 24%

pIC50 (MAPK14): 5.00 to 6.00
Structure (SMILES): FC(F)(F)c1ccc(-c2nn3cc(C(F)(F)F)ccc3c2-c2ccnc(NCCN3CCCC3)n2)cc1

pIC50 (MAPK14): 7.00 to 8.00
Structure (SMILES): Fc1ccc(-c2nn3cc(C(F)(F)F)ccc3c2-c2ccnc(NCCN3CCOCC3)n2)cc1Cl

pIC50 (MAPK14): > 6.30
Structure (SMILES): Nc1nccc(-c2c(-c3ccc(F)cc3)nn3cc(C(F)(F)F)ccc23)n1

pIC50 (MAPK14): 7.00 to 8.00
Structure (SMILES): FC(F)(F)c1ccc2c(-c3ccnc(NCCCN4CCOCC4)n3)c(-c3cccc(Cl)c3)nn2c1

pIC50 (MAPK14): 6.00 to 7.00
Structure (SMILES): Fc1ccc(-c2nn3cc(C(F)(F)F)ccc3c2-c2ccnc(NCCN3CCCCCC3)n2)cc1Cl

— the Kinase Knowledgebase extract (Sharma et al. 2016)
